pIC50: −log10 of the molar value.
Experiments:
SGLT-1 = molecular target: T1, SGLT-1 (Homo sapiens, UniProt P13866); experiment: [14C]-AMG absorption in stable SGLT1 expressing Flp-in CHO cells (SGLT-1 activity screening assay); assay type: cell-based; details: 14C-AMG uptake, 37° C. 1 h, 1% DMSO
T1 sequence (P13866 1-664): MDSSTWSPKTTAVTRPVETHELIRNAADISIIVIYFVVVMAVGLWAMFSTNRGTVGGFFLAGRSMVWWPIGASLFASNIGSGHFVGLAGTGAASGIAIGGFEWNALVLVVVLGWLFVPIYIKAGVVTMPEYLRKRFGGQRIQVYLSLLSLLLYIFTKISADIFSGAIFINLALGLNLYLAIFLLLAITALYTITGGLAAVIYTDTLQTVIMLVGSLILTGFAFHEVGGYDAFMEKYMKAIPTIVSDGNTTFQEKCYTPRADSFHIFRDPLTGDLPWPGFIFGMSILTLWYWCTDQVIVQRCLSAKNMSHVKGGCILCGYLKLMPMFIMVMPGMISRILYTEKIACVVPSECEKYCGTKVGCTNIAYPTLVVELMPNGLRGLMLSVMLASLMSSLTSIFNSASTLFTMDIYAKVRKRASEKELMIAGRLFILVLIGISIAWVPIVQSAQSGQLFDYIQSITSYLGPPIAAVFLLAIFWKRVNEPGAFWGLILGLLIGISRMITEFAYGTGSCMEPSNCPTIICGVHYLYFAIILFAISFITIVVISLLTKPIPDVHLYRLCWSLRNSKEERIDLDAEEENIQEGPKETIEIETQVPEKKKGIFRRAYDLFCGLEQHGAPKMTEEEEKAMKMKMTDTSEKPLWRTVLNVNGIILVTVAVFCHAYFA
Source text: (§1) Example 1: [^14C]-AMG Absorption in Stable SGLT1 and SGLT2 Expressing Flp-in CHO Cells (SGLT-1 and SGLT-2 Activity Screening Assay)
(§2) SGLT-1 and SGLT-2 cDNA clones were purchased from OriGene. After sequencing verification, the expression vectors were constructed based on pcDNA5/FRT using conventional molecular biology method. The expression vector was transfected into Flp-in CHO cells using Lipofectamin 2000. The transfected cells were subject hygromycin selection. The single clones of cells were selected by serial dilutions 4-5 weeks after transfection. The expression of SGLT-1 ? SGLT-2 were confirmed by RT-PCR and functional assay and cell line with strong signal was selected for subsequent study.
(§3) Culture of stable SGLT-1 and SGLT-2 expressing Flp-in CHO cell line: the culture media contain F12 medium (Invitrogen), 500 μg/ml hygromycin (Calbiochem) and 10% FBS (Invitrogen). Upon 80% confluency, the cells in the T75 flask were washed three times with PBS (Invitrogen), and 5 mL of Trpsin-EDTA solution (Invitrogen) was then added. The flask was gently rotated so that all the cells were submerged in the digestion solution. After the cells detach, 10 mL of culture medium was added and single cell suspension was prepared by pipetting up and down. The cell concentration was adjusted to 3×10^5/mL, 100 μL/well was added onto clear bottom 96-well plate (Corning).
(§4) The cells were ready for absorption assay once they attached after overnight culture. 12 h after cell plating, the cells were washed once with 150 μL/well absorption solution KRH-NMG (120 mM NMG, 4.7 mM KCl, 1.2 mM MgCl2, 2.2 mM CaCl2, 10 mM HEPES, pH 7.4 1 mM Tris). The solution was then removed from the well. 2.5 μCi/mL ^14C labeled AMG (PerkinElmer) Buffer KRH-Na+ (120 mM NaCl, 4.7 mM KCl, 1.2 mM MgCl2, 2.2 mM CaCl2, 10 mM HEPES, pH 7.4 1 mM Tris) was added at […] after washing with Buffer KRH-Na+ and KRH-NMG. The corresponding compound I was immediately added at 5 μL/well, ensuring the concentration of Dimethyl Sulfoxide was 1% (v/v). The plate was subsequently incubated at 37° C. for 1 h, after which 150 μL of ice cold wash buffer (120 mM NaCl, 4.7 mM KCl, 1.2 mM MgCl2, 2.2 mM CaCl2, 10 mM HEPES, 0.5 mM phlorizin, pH 7.4 1 mM Tris) was immediately added to terminate the reaction. Each well was washed three times with wash buffer and finally the solution was removed. Caution was taken to avoid cell detachment during the procedure. 20 μL/well of Lysis Buffer (0.1 mM NaOH) was added, the plate was vortexed at 900 rpm for 5 min. 80 μL/well of scintillation solution Microsint40 was added, and vortexed at 900 rpm for 5 min. The radioactivity was assayed using MicroBeta Trilux (PerkinElmer). The data was analyzed and IC50 of the compounds was calculated using XL-fit software.

SGLT-2 = molecular target: T2, SGLT-2 (Homo sapiens, UniProt P31639); experiment: [14C]-AMG absorption in stable SGLT2 expressing Flp-in CHO cells (SGLT-2 activity screening assay); assay type: cell-based; details: 14C-AMG uptake, 37° C. 1 h, 1% DMSO
T2 sequence (P31639 1-672): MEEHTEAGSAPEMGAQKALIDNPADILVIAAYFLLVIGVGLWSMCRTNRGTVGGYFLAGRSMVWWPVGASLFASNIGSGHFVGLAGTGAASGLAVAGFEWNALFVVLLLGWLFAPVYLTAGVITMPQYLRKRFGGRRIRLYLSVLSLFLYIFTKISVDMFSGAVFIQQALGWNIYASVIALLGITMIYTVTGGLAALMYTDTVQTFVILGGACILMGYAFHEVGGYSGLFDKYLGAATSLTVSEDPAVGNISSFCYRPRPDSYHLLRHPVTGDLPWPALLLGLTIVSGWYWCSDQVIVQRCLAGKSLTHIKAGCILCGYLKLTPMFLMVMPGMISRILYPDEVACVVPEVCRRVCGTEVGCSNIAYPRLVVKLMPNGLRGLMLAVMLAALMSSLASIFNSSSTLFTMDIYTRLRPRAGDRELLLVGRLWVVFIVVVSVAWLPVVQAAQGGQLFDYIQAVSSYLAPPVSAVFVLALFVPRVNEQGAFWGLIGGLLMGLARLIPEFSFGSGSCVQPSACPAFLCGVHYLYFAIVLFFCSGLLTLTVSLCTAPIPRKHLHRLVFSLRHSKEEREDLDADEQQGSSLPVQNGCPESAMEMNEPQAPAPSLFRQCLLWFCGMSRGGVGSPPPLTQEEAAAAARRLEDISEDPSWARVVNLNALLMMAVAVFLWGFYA
Source text: as §1, §2, §3, §4

pIC50 (SGLT-1) | pIC50 (SGLT-2) | Structure (SMILES)
6.40 | 8.37 | Cc1ccc([C@@H]2O[C@H](CO)[C@@H](O)[C@H](O)[C@H]2O)cc1Cc1ccc(OCC2Cc3ccccc3O2)cc1 (single isomer, unassigned) [Compound I-27]
6.15 | 7.74 | CC1(COc2ccc(Cc3cc([C@@H]4O[C@H](CO)[C@@H](O)[C@H](O)[C@H]4O)ccc3Cl)cc2)Cc2ccccc2O1 (single isomer, unassigned) [Compound I-106]
4.50 | < 5.70 | CC1(COc2ccc(Cc3cc([C@@H]4O[C@H](CO)[C@@H](O)[C@H](O)[C@H]4O)ccc3Cl)cc2)Cc2ccccc2O1 (single isomer, unassigned) [Compound I-107]
6.61 | 7.89 | Cc1ccc([C@@H]2O[C@H](CO)[C@@H](O)[C@H](O)[C@H]2O)cc1Cc1ccc(OCC2(C)Cc3ccccc3O2)cc1 (single isomer, unassigned) [Compound I-110]
4.46 | < 5.70 | Cc1ccc([C@@H]2O[C@H](CO)[C@@H](O)[C@H](O)[C@H]2O)cc1Cc1ccc(OCC2(C)Cc3ccccc3O2)cc1 (single isomer, unassigned) [Compound I-111]
6.18 | 7.73 | Cc1ccc([C@@H]2O[C@H](CO)[C@@H](O)[C@H](O)[C@H]2O)cc1Cc1ccc(OCC2(C)OCc3ccccc32)cc1 (single isomer, unassigned) [Compound I-113]
6.00 | 8.28 | Cc1ccc([C@@H]2O[C@H](CO)[C@@H](O)[C@H](O)[C@H]2O)cc1Cc1ccc(OCC2(C)OCc3ccccc32)cc1 (single isomer, unassigned) [Compound I-114]
6.14 | 7.90 | CC1(COc2ccc(Cc3cc([C@@H]4O[C@H](CO)[C@@H](O)[C@H](O)[C@H]4O)ccc3Cl)cc2)OCc2ccccc21 (single isomer, unassigned) [Compound I-115]
5.88 | 8.41 | CC1(COc2ccc(Cc3cc([C@@H]4O[C@H](CO)[C@@H](O)[C@H](O)[C@H]4O)ccc3Cl)cc2)OCc2ccccc21 (single isomer, unassigned) [Compound I-116]
6.54 | 8.34 | Cc1ccc([C@@H]2O[C@H](CO)[C@@H](O)[C@H](O)[C@H]2O)cc1Cc1ccc(-c2ccc(F)cc2)s1 [B, Canagliflozin, reference compound]
5.59 | 7.82 | OC[C@H]1O[C@@H](c2ccc(F)c(Cc3ccc(OCc4cc5ccccc5o4)cc3)c2)[C@H](O)[C@@H](O)[C@@H]1O [Compound I-2, (2S,3R,4R,5S,6R)-2-(3-(4-(benzofuran-2-ylmethoxy)benzyl)-4-fluorophenyl)-6-(hydroxymethyl)tetrahydro-2H-pyran-3,4,5-triol]
6.49 | 8.25 | Cc1ccc([C@@H]2O[C@H](CO)[C@@H](O)[C@H](O)[C@H]2O)cc1Cc1ccc(OCc2cc3ccccc3o2)cc1 [Compound I-3, (2S,3R,4R,5S,6R)-2-(3-(4-(benzofuran-2-ylmethoxy)benzyl)-4-methylphenyl)-6-(hydroxymethyl)tetrahydro-2H-pyran-3,4,5-triol]
5.82 | 7.74 | COc1ccc([C@@H]2O[C@H](CO)[C@@H](O)[C@H](O)[C@H]2O)cc1Cc1ccc(OCc2cc3ccccc3o2)cc1 [Compound I-5, (2S,3R,4R,5S,6R)-2-(3-(4-(benzofuran-2-ylmethoxy)benzyl)-4-methoxyphenyl)-6-(hydroxymethyl)tetrahydro-2H-pyran-3,4,5-triol]
– | 7.44 | OC[C@H]1O[C@@H](c2cccc(Cc3ccc(OCc4cc5ccccc5o4)cc3)c2)[C@H](O)[C@@H](O)[C@@H]1O [Compound I-6, (2S,3R,4R,5S,6R)-2-(3-(4-(benzofuran-2-ylmethoxy)benzyl)phenyl)-6-(hydroxymethyl)tetrahydro-2H-pyran-3,4,5-triol]
6.35 | 7.85 | OC[C@H]1O[C@@H](c2ccc(Cl)c(Cc3ccc(OCc4cc5c(F)cccc5o4)cc3)c2)[C@H](O)[C@@H](O)[C@@H]1O [Compound I-7, (2S,3R,4R,5S,6R)-2-(4-chloro-3-(4-((4-fluorobenzofuran-2-yl)methoxy)benzyl)phenyl)-6-(hydroxymethyl)tetrahydro-2H-pyran-3,4,5-triol]
5.84 | 7.60 | OC[C@H]1O[C@@H](c2ccc(Cl)c(Cc3ccc(OCc4cc5cc(F)ccc5o4)cc3)c2)[C@H](O)[C@@H](O)[C@@H]1O [Compound I-8, (2S,3R,4R,5S,6R)-2-(4-chloro-3-(4-((5-fluorobenzofuran-2-yl)methoxy)benzyl)phenyl)-6-(hydroxymethyl)tetrahydro-2H-pyran-3,4,5-triol]
6.82 | 7.89 | OC[C@H]1O[C@@H](c2ccc(Cl)c(Cc3ccc(OCc4cc5ccc(F)cc5o4)cc3)c2)[C@H](O)[C@@H](O)[C@@H]1O [Compound I-9, (2S,3R,4R,5S,6R)-2-(4-chloro-3-(4-((6-fluorobenzofuran-2-yl)methoxy)benzyl)phenyl)-6-(hydroxymethyl)tetrahydro-2H-pyran-3,4,5-triol]
– | 7.42 | OC[C@H]1O[C@@H](c2ccc(Cl)c(Cc3ccc(OCCC4Cc5ccccc5O4)cc3)c2)[C@H](O)[C@@H](O)[C@@H]1O (stereo partly drawn) [Compound I-60, (2S,3R,4R,5S,6R)-2-(4-chloro-3-(4-(2-(2,3-dihydrobenzofuran-2-yl)ethoxy)benzyl)phenyl)-6-(hydroxymethyl)tetrahydro-2H-pyran-3,4,5-triol]
– | 8.25 | CC1(C)OC(COc2ccc(Cc3cc([C@@H]4O[C@H](CO)[C@@H](O)[C@H](O)[C@H]4O)ccc3Cl)cc2)c2ccccc21 (stereo partly drawn) [Compound I-63, (2S,3R,4R,5S,6R)-2-(4-chloro-3-(4-((3,3-dimethyl-1,3-dihydroisobenzofuran-1-yl)methoxy)benzyl)phenyl)-6-(hydroxymethyl)tetrahydro-2H-pyran-3,4,5-triol]

From patent US9914724B2, “C-aryl glycosid derivatives, pharmaceutical composition, preparation process and uses thereof” (SHANGHAI DE NOVO PHARMATECH CO. LTD., priority 2014, dated 2018)
